Measurements published in patent publication US8748428B2, “Use of a PKC inhibitor” (Novartis AG, priority 2010, dated 2014).
pIC50: −log10 of the molar value.

Experiments:
[1] = tested on: IL-6 mRNA in HBL1 cells; experiment: IL-6 mRNA expression (Taqman); type: cell-based; settings: HBL1, 24 hours, 10 nM to 10 uM
Excerpt: (§1) Constitutive activation of the NFkB pathway is a molecular hallmark of ABC DLBCL cells and is required for their proliferation and survival. See Davis, R. E., et al., J Exp Med, 194(12), 1861-1874 (2001). To confirm that the growth inhibitory effect in response to PKC inhibition is mediated through modulation of NFkB pathway signaling, the expression of NFkB pathway genes were monitored in response to AEB071 treatment. The NFkB-pathway-induced cytokine IL-6 was used as a marker to study NFkB pathway modulation by PKC inhibitors. See Lam, L. T., et al., Blood 111(7):3701-13 (2008). To measure IL-6 mRNA levels, cells were plated in […] plates in 2 ml media at 2M/ml, then treated with DMSO or inhibitors from 10 nM to 10 uM (4-fold dilutions) for 24 hours. Total RNA was harvested using the RNeasy kit (Qiagen, #74104) and cDNA was made from 1 μg total RNA using the High Capacity cDNA kit (ABI, #4368814), according to manufacturer's protocols. Taqman probes (ABI: IL-6, Hs00174131_m1) were used with Gene Expression Master Mix (ABI, 4369510) to determine the amount of mRNA expression for IL-6 relative to an endogenous control gene (ABI: TBP, 4326322E) and the DMSO control using the delta-delta Ct method.

[2] = tested on: IL-6 mRNA in OCI-Ly10 cells; experiment: IL-6 mRNA expression (Taqman); type: cell-based; settings: OCI-Ly10, 24 hours, 10 nM to 10 uM
Excerpt: as §1

[3] = tested on: IL-6 mRNA in OCI-Ly3 cells; experiment: IL-6 mRNA expression (Taqman); type: cell-based; settings: OCI-Ly3 (mutant CARD11), 24 hours, 10 nM to 10 uM
Excerpt: as §1

[4] = tested on: IL-6 mRNA in TMD8 cells; experiment: IL-6 mRNA expression (Taqman); type: cell-based; settings: TMD8, 24 hours, 10 nM to 10 uM
Excerpt: as §1

[5] = tested on: IL-6 secretion in HBL1 cells; experiment: IL-6 secretion (Quantikine ELISA); type: cell-based; settings: HBL1, ELISA of supernatant, 48 hours
Experimental: (§2) The fact that IL-6 is secreted from cells allowed for monitoring of IL-6 levels in cell supernatants. IL-6 secretion was determined by Quantikine ELISA using supernatant from treated cells. Cells were washed and plated at 100,000 cells/well in 100 ul in fresh media in round-bottom 96-well plates (Corning, #3358). The cells were then treated with DMSO or inhibitors at concentrations ranging from 80 nM to 10 uM (2-fold dilutions), and incubated at 37° C. for 48 hours. Then the conditioned media was transferred to v-bottom 96-well plates (Nunc, #12565436). The level of IL-6 secretion was determined by the Quantkine colorimetric ELISA kit from (R & D Systems, #D6050), according to the manufacturer's instructions. For the IL-6 ELISA, the conditioned media was diluted 1:2 with fresh media (except ion: the HBL1 conditioned media was not diluted, it was used 1:1). In FIG. 2, IL-6 secretion for each dose is expressed as a percentage of IL-6 secretion from cells treated with DMSO.

[6] = tested on: IL-6 secretion in TMD8 cells; experiment: IL-6 secretion (Quantikine ELISA); type: cell-based; settings: Homo sapiens; TMD8, ELISA of supernatant, 48 hours
Experimental: as §2

[7] = tested on: TMD8 xenograft; experiment: Subcutaneous TMD8 xenograft model, tumor growth; type: in vivo, SCID-beige mice; settings: 80 mg/kg, tid, daily oral dosing; p<0.05 vs vehicle
Experimental: CD79 mutant ABC DLBCL were also shown to be sensitive to PKC inhibition in an in vivo setting by using a subcutaneous TMD8 xenograft model. Female SCID-beige mice were purchased from Charles River Labs (Wilmington Mass.) and housed in temperature and a humidity-controlled vivarium with a 12 hours light cycle and provided food and water ad libitum. Mice were implanted subcutaneously with 10×10^6 TMD8 cells in 50% matrigel (BD Biosciences, #354234) in the right dorsal axillary region, and animals were randomized into treatment groups when tumor sizes average ˜160 mm^3 (21 days post-implantation). AEB071 was formulated in 20% PEG400 and 4.5% 0.1 M HCl in D5W. Tumor volume was measured by callipering in 2 dimensions and calculated as (Length×Width^2)/2. Animals were callipered twice weekly during treatment to monitor effects on tumor growth. […] T/C percentage was calculated as the mean change in tumor volumes of treated animals divided by the mean change in tumor volumes of vehicle animals and multiplied by 100. Data are expressed as mean±SEM, and differences are considered statistically significant at p<0.05 by Student t-test.

pIC50 [5]: > 6.70
pIC50 [6]: > 6.70
Compound: CN1CCN(c2nc(C3=C(c4c[nH]c5ccccc45)C(=O)NC3=O)c3ccccc3n2)CC1 [AEB071, 3-(1H-Indol-3-yl)-4-[2-(4-methylpiperazin-1-yl)quinazolin-4-yl]-1H-pyrrole-2,5-dione]
IL-6 mRNA expression [1]: dose-dependent decrease
IL-6 mRNA expression [2]: dose-dependent decrease
IL-6 mRNA expression [3]: unaffected
IL-6 mRNA expression [4]: dose-dependent decrease
T/C (tumor growth) [7]: 17%
